Data as given in PMC7037321, “Development and Validation of Analytical Method for SH-1242 in the Rat and Mouse Plasma by Liquid Chromatography/Tandem Mass Spectrometry” (Molecules, 2020).

Assays:
[1] = Stability in stock solutions under typical storage conditions; type: physicochemical; conditions: stock solution in methanol (SH-1242 1 mg/mL, IS 500 ng/mL), n = 3
Procedure: (§1) Stock solutions of SH-1242 and IS were prepared at the concentrations of 1 mg/mL and 500 ng/mL in methanol, respectively. A serial dilution of the SH-1242 stock solution with methanol was carried out to obtain a set of SH-1242 standard solutions, and 5 µL aliquots of these standard solutions were added to 45 µL of blank plasma to prepare SH-1242 calibration standards at concentrations of 1, 2, 5, 10, 20, 50, 100, 200, 500, and 1000 ng/mL for rat plasma and 2, 5, 10, 20, 50, 100, 200, 500, and 1000 ng/mL for mouse plasma. Using similar dilution protocol, a batch of QC samples for SH-1242 was prepared at concentrations of 1 (LLOQ), 2 (low QC), 40 (mid QC), and 800 ng/mL (high QC) for rat plasma and 2 (LLOQ), 4 (low QC), 40 (mid QC), and 800 ng/mL (high QC) for mouse plasma. Samples were then processed according to the procedure described in Section 3.5.
(§2) The stability of SH-1242 and IS was evaluated under various storage and handling conditions. Stock solutions of SH-1242 and IS at concentrations of 1 mg/mL and 500 ng/mL, respectively, were stored at room temperature (25 °C) for 6 h, under refrigerated conditions (4 °C) for 24 h or 2 weeks, or under two different frozen conditions (−20 °C and −80 °C) for 2 weeks. Solutions of SH-1242 were diluted to 50 ng/mL prior to analysis. In addition, QC samples at three different concentrations (2 or 4 ng/mL, 40 ng/mL, and 800 ng/mL) were prepared and processed. The samples were then placed in various handling conditions (i.e., standing in an autosampler (4 °C for 3 days) or under bench-top condition (25 °C for 24 h), or subjected to three freeze-thaw cycles, or long-term refrigeration (4 °C for 2 weeks)). Mean peak areas of stock solutions were compared with those of fresh stock solutions. For QC samples, the results were compared with nominal concentrations. In this study, analytes were considered stable under test conditions when accuracies at each concentration were within 15% of nominal concentration.

[2] = set-up: method as in PMID 11320671; conditions: rats; cited from earlier work
[3] = Pharmacokinetic study after single intravenous administration to rats; type: in vivo; conditions: male, Sprague-Dawley, rat, plasma, single intravenous 0.1 mg/kg, n = 4, mean ± S.D.
Procedure: (§3) To test the applicability of the current assay to pharmacokinetic studies, in preclinical animal species, male Sprague-Dawley rats (weighing 250–270 g) or ICR mice (weighing 18–20 g) were used. Prior to the experiment, animals fasted for 12 h with free access to water. SH-1242 was dissolved in a dosing vehicle consisting of dimethyl sulfoxide, PEG400 (Sigma-Aldrich, St. Louis, MO, USA), and normal saline in a ratio of 1:6:3 (v/v/v%), and intravenously bolus-injected to the right femoral vein at 2 mL/kg for rats or to the tail vein at 5 mL/kg for mice. In this study, the intravenous dose of SH-1242 was set at 0.1 mg/kg for both species. Blood samples (approximately 150 µL each) were collected in heparinized tubes via the right femoral artery at 2, 5, 15, 30, 60, 90, 120, 180, 240, 360, and 480 min after the administration to rats (n = 4) and via the retro-orbital plexus at 2, 5, 15, 30, 60, or 120 min after the administration to mice (n = 3 for each time point). For the mouse study, a blood sample was obtained once from each animal, and the animal was sacrificed after collection. Plasma was obtained by centrifuging blood samples at 16,100 g for 5 min at 4 °C and then processed, as described in Section 3.5. The plasma concentration versus time data was analyzed using the non-compartmental method in the WinNonlin software (WinNonlin Professional 5.0.1.; Pharsight, Mountain View, CA, USA) to calculate essential kinetic parameters, such as terminal phase half-life (T1/2), systemic clearance (CL), and steady-state volume of distribution (Vss).

[4] = Pharmacokinetic study after single intravenous administration to mice; type: in vivo; conditions: male, ICR, plasma, single intravenous 0.1 mg/kg, representative (one time point per mouse)
Procedure: as §3

[5] = Stability of QC samples in rat plasma under handling and storage conditions; type: in vitro ADME; conditions: n = 3; for Accuracy (RE%), freeze-thaw stability / Mean concentration, freeze-thaw stability: 3 freeze-thaw cycles; for Accuracy (RE%), long term stability / Mean concentration, long term stability: 4 °C for 2 weeks; for Accuracy (RE%), autosampler stability / Mean concentration, autosampler stability: processed sample, 4 °C for 3 days; for Accuracy (RE%), benchtop stability / Mean concentration, benchtop stability: room temperature (25 °C) for 24 h
Procedure: as §1, §2

[6] = Stability of QC samples in mouse plasma under handling and storage conditions; type: in vitro ADME; conditions: n = 3; for Accuracy (RE%), freeze-thaw stability / Mean concentration, freeze-thaw stability: 3 freeze-thaw cycles; for Accuracy (RE%), long term stability / Mean concentration, long term stability: 4 °C for 2 weeks; for Accuracy (RE%), autosampler stability / Mean concentration, autosampler stability: processed sample, 4 °C for 3 days; for Accuracy (RE%), benchtop stability / Mean concentration, benchtop stability: room temperature (25 °C) for 24 h
Procedure: as §1, §2

[7] = tested on: hypoxia-mediated angiogenesis; set-up: method as in PMID 24875598; conditions: in vitro model of hypoxia-mediated angiogenesis; cited from earlier work

Structure (SMILES): COc1cc2c(cc1OC)[C@@H]1C(=O)c3ccc4c(c3O[C@@H]1CO2)C=CC(C)(C)O4 [deguelin, reference compound]
- Relative conc. (%) vs initial ([1]; Refrigerated (4 °C, 2 Weeks)): 92.3%
- Relative conc. (%) vs initial ([1]; Refrigerated (4 °C, 24 h)): 105%
- Relative conc. (%) vs initial ([1]; Refrigerated (−20 °C, 2 Weeks)): 91.4%
- Relative conc. (%) vs initial ([1]; Refrigerated (−80 °C, 2 Weeks)): 86.2%
- Relative conc. (%) vs initial ([1]; Room Temp. (6 h)): 101%
- CL [2]: 72.7 mL/min/kg
- Vss [2]: 30.5 L/kg

Structure (SMILES): COc1ccc(CC(=O)c2ccc3c(c2OC)C=CC(C)(C)O3)cc1OC [SH-1242, 2-(3,4-dimethoxyphenyl)-1-(5-methoxy-2,2-dimethyl-2H-chromen-6-yl)ethanone]
- AUC(0-inf) [3]: 55.8 ng·h/mL
- MRT [3]: 2.48 h
- clearance [3]: 30.5 ± 4.49 mL/min/kg
- half-life [3]: 2.43 ± 0.983 h
- Vd ([3]; read-out: Vss): 4.38 ± 0.716 L/kg
- AUC(0-inf) [4]: 24 ng·h/mL
- MRT [4]: 0.493 h
- clearance [4]: 69.4 mL/min/kg
- half-life [4]: 0.438 h
- Vd ([4]; read-out: Vss): 2.06 L/kg
- Relative conc. (%) vs initial ([1]; Refrigerated (4 °C, 2 Weeks)): 85.2%
- Relative conc. (%) vs initial ([1]; Refrigerated (4 °C, 24 h)): 105%
- Relative conc. (%) vs initial ([1]; Refrigerated (−20 °C, 2 Weeks)): 89.1%
- Relative conc. (%) vs initial ([1]; Refrigerated (−80 °C, 2 Weeks)): 90.8%
- Relative conc. (%) vs initial ([1]; Room Temp. (6 h)): 109%
- Accuracy (RE%), freeze-thaw stability ([5]; HQC theoretical 800 ng/mL): –2.50%
- Mean concentration, freeze-thaw stability ([5]; HQC theoretical 800 ng/mL): 780 ng/mL
- Accuracy (RE%), freeze-thaw stability ([5]; LQC theoretical 2 ng/mL): –7.83%
- Mean concentration, freeze-thaw stability ([5]; LQC theoretical 2 ng/mL): 1.84 ng/mL
- Accuracy (RE%), freeze-thaw stability ([5]; MQC theoretical 40 ng/mL): 4.92%
- Mean concentration, freeze-thaw stability ([5]; MQC theoretical 40 ng/mL): 41.97 ng/mL
- Accuracy (RE%), long term stability ([5]; HQC theoretical 800 ng/mL): –8.71%
- Mean concentration, long term stability ([5]; HQC theoretical 800 ng/mL): 730 ng/mL
- Accuracy (RE%), long term stability ([5]; LQC theoretical 2 ng/mL): 0.833%
- Mean concentration, long term stability ([5]; LQC theoretical 2 ng/mL): 2.02 ng/mL
- Accuracy (RE%), long term stability ([5]; MQC theoretical 40 ng/mL): –6.75%
- Mean concentration, long term stability ([5]; MQC theoretical 40 ng/mL): 37.3 ng/mL
- Accuracy (RE%), autosampler stability ([5]; HQC theoretical 800 ng/mL): –3.33%
- Mean concentration, autosampler stability ([5]; HQC theoretical 800 ng/mL): 773 ng/mL
- Accuracy (RE%), autosampler stability ([5]; LQC theoretical 2 ng/mL): –0.167%
- Mean concentration, autosampler stability ([5]; LQC theoretical 2 ng/mL): 2.00 ng/mL
- Accuracy (RE%), autosampler stability ([5]; MQC theoretical 40 ng/mL): –2.75%
- Mean concentration, autosampler stability ([5]; MQC theoretical 40 ng/mL): 38.9 ng/mL
- Accuracy (RE%), benchtop stability ([5]; HQC theoretical 800 ng/mL): –7.88%
- Mean concentration, benchtop stability ([5]; HQC theoretical 800 ng/mL): 737 ng/mL
- Accuracy (RE%), benchtop stability ([5]; LQC theoretical 2 ng/mL): –6.33%
- Mean concentration, benchtop stability ([5]; LQC theoretical 2 ng/mL): 1.87 ng/mL
- Accuracy (RE%), benchtop stability ([5]; MQC theoretical 40 ng/mL): –6.83%
- Mean concentration, benchtop stability ([5]; MQC theoretical 40 ng/mL): 37.3 ng/mL
- Accuracy (RE%), freeze-thaw stability ([6]; HQC theoretical 800 ng/mL): 5.00%
- Mean concentration, freeze-thaw stability ([6]; HQC theoretical 800 ng/mL): 840 ng/mL
- Accuracy (RE%), freeze-thaw stability ([6]; LQC theoretical 4 ng/mL): 11.3%
- Mean concentration, freeze-thaw stability ([6]; LQC theoretical 4 ng/mL): 4.45 ng/mL
- Accuracy (RE%), freeze-thaw stability ([6]; MQC theoretical 40 ng/mL): 6.00%
- Mean concentration, freeze-thaw stability ([6]; MQC theoretical 40 ng/mL): 42.4 ng/mL
- Accuracy (RE%), long term stability ([6]; HQC theoretical 800 ng/mL): 8.08%
- Mean concentration, long term stability ([6]; HQC theoretical 800 ng/mL): 865 ng/mL
- Accuracy (RE%), long term stability ([6]; LQC theoretical 4 ng/mL): –4.08%
- Mean concentration, long term stability ([6]; LQC theoretical 4 ng/mL): 3.84 ng/mL
- Accuracy (RE%), long term stability ([6]; MQC theoretical 40 ng/mL): 12.0%
- Mean concentration, long term stability ([6]; MQC theoretical 40 ng/mL): 44.8 ng/mL
- Accuracy (RE%), autosampler stability ([6]; HQC theoretical 800 ng/mL): 7.83%
- Mean concentration, autosampler stability ([6]; HQC theoretical 800 ng/mL): 863 ng/mL
- Accuracy (RE%), autosampler stability ([6]; LQC theoretical 4 ng/mL): 4.67%
- Mean concentration, autosampler stability ([6]; LQC theoretical 4 ng/mL): 4.19 ng/mL
- Accuracy (RE%), autosampler stability ([6]; MQC theoretical 40 ng/mL): 6.50%
- Mean concentration, autosampler stability ([6]; MQC theoretical 40 ng/mL): 42.6 ng/mL
- Accuracy (RE%), benchtop stability ([6]; HQC theoretical 800 ng/mL): 1.25%
- Mean concentration, benchtop stability ([6]; HQC theoretical 800 ng/mL): 810 ng/mL
- Accuracy (RE%), benchtop stability ([6]; LQC theoretical 4 ng/mL): 5.25%
- Mean concentration, benchtop stability ([6]; LQC theoretical 4 ng/mL): 4.21 ng/mL
- Accuracy (RE%), benchtop stability ([6]; MQC theoretical 40 ng/mL): 4.25%
- Mean concentration, benchtop stability ([6]; MQC theoretical 40 ng/mL): 41.7 ng/mL
- effective concentration (antiangiogenic activity) [7]: ~10 nM
